19 compounds from PubChem BioAssay (NCI) can be followed below.

Some test systems named below: MALME-3M melanoma; OVCAR-4 ovarian; OVCAR-8 ovarian; TK-10 renal; U251 CNS; OVCAR-3 ovarian.
Experiment in all cases: DTP human tumour cell line panel, 48 h

Molecules are shown by their SMILES.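 The compound was tested at five concentrations on cells cultured in 96-well plates, with a 48-hour exposure period. GI50 is the concentration that inhibits growth by half. The concentration for full growth arrest is given as TGI.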 Bounds are passed on as bounds.

For orientation: TGI means the concentration giving total growth inhibition. High values mean lower sensitivity of the cells, low ones greater sensitivity of the cells. Consider `COc1ccc(-c2nc(N(C)C)c3ccccc3n2)cc1`, for which the TGI in the assay on MALME-3M melanoma was 42.1 µM; with OVCAR-4 ovarian it was over 100 µM; with OVCAR-8 ovarian, over 100 µM; in the assay on TK-10 renal, 65.8 µM; in the assay on U251 CNS, 80 µM.

Consider `CCN(CC)CCCC(C)NC(=O)c1cc(-c2nccn2C)nc2ccc(C)cc12` (configuration not stated), for which the TGI in the assay on MALME-3M melanoma, with OVCAR-4 ovarian, in the assay with OVCAR-8 ovarian, with TK-10 renal and with U251 CNS was over 100 µM throughout.

Regarding `COc1ccc(OC)c(C2CCCc3c2cnc2nc(N)nc(N)c32)c1` (configuration not stated), the TGI with MALME-3M melanoma, with OVCAR-3 ovarian, in the assay on OVCAR-4 ovarian, in the assay on OVCAR-8 ovarian, in the assay on TK-10 renal and in the assay with U251 CNS was over 100 µM in each case.

As to `CC(C)(C)c1ccc(-c2nc3ccccc3c(=O)o2)cc1`, the TGI in the assay with MALME-3M melanoma is over 100 µM; in the assay with OVCAR-3 ovarian it was 62.1 µM; with OVCAR-4 ovarian, over 100 µM; with OVCAR-8 ovarian, over 100 µM; with TK-10 renal it was over 100 µM; in the assay on U251 CNS, over 100 µM.

`C/C(=N\Nc1nc2ccccc2[nH]1)c1ccncn1`: the TGI in the assay with MALME-3M melanoma is over 100 µM; with OVCAR-3 ovarian it was 13 µM; in the assay on OVCAR-4 ovarian, over 100 µM; in the assay on OVCAR-8 ovarian, over 87.6 µM; with TK-10 renal, over 100 µM; in the assay with U251 CNS it was over 100 µM.

As to `SC[C@@H]1COC[C@H](CS)S1`, the TGI in the assay on OVCAR-3 ovarian, in the assay on OVCAR-4 ovarian, in the assay with OVCAR-8 ovarian, with TK-10 renal and with U251 CNS was over 100 µM throughout.

`C=C[C@@]1(C)CC2CC[C@]3(C)C(C)=CC(=O)CC3[C@]2(C)CC1O` (some centres not stated): the TGI in the assay on MALME-3M melanoma, in the assay on OVCAR-3 ovarian, in the assay on OVCAR-4 ovarian, with TK-10 renal and in the assay on U251 CNS was over 100 µM in each case.

For the compound `O=c1c2c(sc3ccccc13)NCN(CCc1ccccc1)C2`, the TGI in the assay with MALME-3M melanoma, with OVCAR-3 ovarian, in the assay with OVCAR-4 ovarian, in the assay on OVCAR-8 ovarian and in the assay on U251 CNS was over 100 µM each time.

With `Nc1ncnc2c1ncn2[C@@H]1C[C@H]1CO`, the TGI in the assay on MALME-3M melanoma, in the assay on OVCAR-3 ovarian, with OVCAR-8 ovarian and in the assay on U251 CNS was over 100 µM throughout.

As for `COc1ccc(N2C(=O)CSC2c2cc3cc(Br)ccc3nc2Cl)cc1` (configuration not stated), the TGI in the assay on MALME-3M melanoma, with OVCAR-3 ovarian, in the assay on OVCAR-4 ovarian, in the assay on OVCAR-8 ovarian and with TK-10 renal was over 50 µM throughout.

Take `CC(=O)OCc1cccc(O)c1C(=O)CCC=C(C)C`: the TGI with MALME-3M melanoma, in the assay with OVCAR-3 ovarian, in the assay with OVCAR-4 ovarian, in the assay on TK-10 renal and in the assay on U251 CNS was over 100 µM in each case.

In the case of `COC(=O)C1=C(C(=O)OC)SC(=C2c3ccsc3-c3sccc32)S1`, the TGI in the assay with MALME-3M melanoma is over 100 µM; in the assay on OVCAR-3 ovarian, over 100 µM; in the assay on OVCAR-8 ovarian, over 100 µM; with TK-10 renal it was 57.8 µM; in the assay with U251 CNS it was 98.5 µM.

Consider `OC(c1ccsc1)c1cc2ccccc2s1` (configuration not stated), for which the TGI in the assay with OVCAR-3 ovarian, in the assay on OVCAR-4 ovarian, in the assay with OVCAR-8 ovarian, in the assay on TK-10 renal and with U251 CNS was over 10 µM in each case.

Consider `COc1cc2c(c(N)c1OC)C(=O)/C(=C/c1cc(C)c(O)c(C)c1)C2`, for which the TGI in the assay on OVCAR-4 ovarian is over 100 µM; in the assay on OVCAR-8 ovarian, over 100 µM; in the assay with TK-10 renal, over 100 µM; with U251 CNS, over 45.5 µM.

For `O=c1n(CCCN2CCN(c3cccc(Cl)c3)CC2)nc2n1-c1ccc3ccccc3c1SC2`, the TGI with OVCAR-3 ovarian, in the assay with OVCAR-4 ovarian, with OVCAR-8 ovarian, in the assay on TK-10 renal and in the assay with U251 CNS was over 100 µM throughout.

As to `C/C(O)=C(/C=N\C(=S)Nc1ccc(Cl)c(Cl)c1)C(=O)Nc1ccccc1C`, the TGI was over 100 µM in the assay with OVCAR-3 ovarian; 76.5 µM in the assay with OVCAR-4 ovarian; 66.3 µM in the assay on OVCAR-8 ovarian; over 100 µM with TK-10 renal; over 100 µM with U251 CNS.

Turning to `O=C1C=C(c2c(-c3ccccc3)[nH]c3ccccc23)C(=O)N1c1ccccc1`, the TGI was found to be 23.9 µM in the assay with MALME-3M melanoma; 15.8 µM in the assay on OVCAR-3 ovarian; 20.8 µM with OVCAR-8 ovarian; 30.3 µM in the assay with TK-10 renal; 26.8 µM in the assay with U251 CNS.

What is called GI50 is the concentration that inhibits growth by half. In the case of `CCCCCCNC(=O)c1cc(C#Cc2cc(OC)ccc2OC)ccc1OC`, the GI50 in the assay with OVCAR-3 ovarian was over 100 µM. In addition, the TGI in the assay with OVCAR-3 ovarian, in the assay on OVCAR-4 ovarian, in the assay on OVCAR-8 ovarian, in the assay with TK-10 renal and in the assay with U251 CNS was over 100 µM in each case.

With `COCC[N+](CCNC(=O)c1cccc2c(N)c3cccc(C)c3nc12)(CCOC)Cc1ccc([N+](=O)[O-])cc1`, the TGI was 99.1 µM with OVCAR-3 ovarian; over 100 µM with OVCAR-4 ovarian; over 100 µM with OVCAR-8 ovarian; over 100 µM in the assay on TK-10 renal; over 100 µM in the assay on U251 CNS.
